Reference: patent US10450288B2, “Hydroxy formamide derivatives and their use” (GLAXOSMITHKLINE INTELLECTUAL PROPERTY (NO.2) LIMITED, priority 2014, dated 2019)

Test system: human cardiac fibroblasts
Assay: Cell-based inhibition assay of generation of procollagen I C-terminal propeptide (PICP), PICP ELISA
Conditions: Cardiac fibroblast; human cardiac fibroblasts, crowding media, 24 to 48 hr, PICP ELISA of media; read-out: pIC50, PICP cellular inhibition assay (converted)
Experimental: Cell-Based Inhibition Assay of Generation of Procollagen I C-Terminal Propeptide (PICP) and Mature Collagen:
An adaptation of the collagen deposition assay described by Chen, C. Z. C., et al., British Journal of Pharmacology, 2009, 158, 1196-1209 was used to examine effect of compounds on procollagen I processing and collagen deposition. In the adapted assay, human cardiac fibroblasts were utilized. Processing of procollagen I was determined by a PICP ELISA assay and deposition of mature collagen was determined by immunostaining.
Human cardiac fibroblasts were cultured and maintained until passage 6 in FGM-3 media (Lonza, #CC-3132) in a 37° C. humidified incubator with 5% CO2. They were then seeded in 96-well black wall, clear bottom plates at 10,000 to 15,000 cells per well in eagle's minimum essential media (EMEM, ATCC #30-2003) containing 10% fetal bovine serum (FBS, Life Technologies #10082147), 1% Glutamax (Life Technologies #35050061) and 1% Penicillin and Streptomycin (Life Technologies #15070063). These cultures were placed in 37° C. incubator. The next day, media were removed by aspiration and cells were rinsed with phosphate buffered saline. Crowding media (also called ficoll media) was prepared by adding 112.5 mg/ml of ficoll70 and 75 mg/ml ficoll400 (GE healthcare #17-0310-10 and 17-0300-10, respectively), 100 μM ascorbic acid, 1% Glutamax and 1% Penicillin and Streptomycin to EMEM media. Test compounds (dissolved in DMSO) were diluted into crowding media and then added to the cells. Final concentration of DMSO in crowding media was less than 0.3%. Cells were treated for 24 to 48 hr in a 37° C. incubator. At the end of the treatment period, cell media were collected. The level of PICP in the media were determined by a PICP ELISA assay (Quidel #8003) following the manufacturer's protocol. Potencies of test compounds were calculated by fitting PICP levels, relative to untreated controls, to log (inhibitor) vs. response equation using Graphpad Prism software 5.0 and expressed as pIC50.

Row | Structure (SMILES) | IC50
1 | CCCCC[C@H](CN(O)C=O)C(=O)NCNC(=O)c1ccc(-c2cccc(C(=O)OC)c2)o1 [Example 16, (R)-methyl 3-(5-(((2-((N-hydroxyformamido)methyl)heptanamido)methyl)carbamoyl)furan-2-yl)benzoate] | < 3.98 µM
2 | CCCCC[C@H](CN(O)C=O)C(=O)NCNC(=O)c1ccc(-c2ccc(F)c(C(=O)O)c2F)o1 [Example 78] | < 3.98 µM
3 | CCOc1cc(-c2ccc(C(=O)NCNC(=O)[C@H](CCc3ccc4ccccc4c3)[C@@H](CC)N(O)C=O)o2)ccc1C(=O)N[C@@H](CC(=O)O)C(=O)O [Example 117, (S)-2-(2-ethoxy-4-(5-((((2R,3R)-3-(N-hydroxyformamido)-2-(2-(naphthalen-2-yl)ethyl)pentana-mido)methyl)carbamoyl)furan-2-yl)benzamido) succinic acid] | < 3.98 µM
4 | CCCCC[C@@H](C(=O)NCNC(=O)c1ccc(-c2ccc(C(=O)O)c(C(=O)O)c2)o1)[C@@H](CC)N(O)C=O [Example 129, 4-(5-((((R)-2-((R)-1-(N-hydroxyformamido)propyl)heptanamido)methyl)carbamoyl)furan-2-yl)phthalic acid] | < 3.98 µM
5 | CCCCC[C@H](CN(O)C=O)C(=O)NCNC(=O)c1ccc(-c2cccc(C(=O)O)c2OC)o1 [Example 55, (R)-3-(5-(((2-((N-hydroxyformamido)methyl)heptanamido)methyl)carbamoyl)furan-2-yl)-2-methoxybenzoic acid] | < 3.98 µM
6 | CCCCC[C@@H](C(=O)NCNC(=O)c1ccc(-c2ccc(C(=O)NCP(=O)(O)O)c(O)c2)o1)[C@@H](CC)N(O)C=O [Example 142, ((2-hydroxy-4-(5-((((R)-2-((R)-1-(N-hydroxyformamido)propyl)heptanamido)methyl)carbamoyl)furan-2-yl)benzamido)methyl)phosphonic acid] | < 3.98 µM
7 | CCCCC[C@H](CN(O)C=O)C(=O)NCNC(=O)c1ccc(-c2cccc(C(=O)O)c2F)o1 [Example 59, (R)-2-fluoro-3-(5-(((2-((N-hydroxyformamido)methyl)heptanamido)methyl)carbamoyl)furan-2-yl)benzoic acid] | < 3.98 µM
8 | CCCCC[C@H](CN(O)C=O)C(=O)NCNC(=O)c1ccc(-c2cccc(OC(C)C)c2)o1 [Example 25, (R)-N-((2-((N-hydroxyformamido)methyl)heptanamido)methyl)-5-(3-isopropoxyphenyl)furan-2-carboxamide] | < 3.98 µM
9 | CCCCC[C@H](CN(O)C=O)C(=O)NCNC(=O)c1ccc(-c2ccc(F)c(C(=O)OC)c2)o1 [Example 51, (R)-methyl 2-fluoro-5-(5-(((2-((N-hydroxyformamido)methyl)heptanamido)methyl)carbamoyl)furan-2-yl)benzoate] | < 3.98 µM
10 | CCCCC[C@H](CN(O)C=O)C(=O)NCNC(=O)c1ccc(-c2cccc(SC)c2)o1 [Example 104, (R)-N-((2-((N-hydroxyformamido)methyl)heptanamido)methyl)-5-(3-(methylthio)phenyl)furan-2-carboxamide] | < 3.98 µM
11 | CCCCC[C@@H](C(=O)NCNC(=O)c1ccc(-c2ccc(CC(=O)O)c(OCC)c2)o1)[C@@H](CC)N(O)C=O [Example 41, 2-(2-ethoxy-4-(5-((((R)-2-((R)-1-(N-hydroxyformamido)propyl)heptanamido)methyl)carbamoyl)furan-2-yl)phenyl)acetic acid] | < 3.98 µM
12 | CCCCC[C@@H](C(=O)NCNC(=O)c1ccc(-c2ccc(C(=O)N[C@@H](CCC(=O)O)C(=O)O)c(OCC)c2)o1)[C@@H](CC)N(O)C=O [Example 135, (S)-2-(2-ethoxy-4-(5-((((R)-2-((R)-1-(N-hydroxyformamido)propyl)heptanamido)methyl)carbamoyl)furan-2-yl)benzamido) pentanedioic acid] | < 3.98 µM
13 | CCCCC[C@@H](C(=O)NCNC(=O)c1ccc(-c2cc(OCC)cc(C(F)(F)C(=O)O)c2)o1)[C@@H](CC)N(O)C=O [Example 49, 2-(3-ethoxy-5-(5-((((R)-2-((R)-1-(N-hydroxyformamido)propyl)heptanamido)methyl)carbamoyl)furan-2-yl)phenyl)-2,2-difluoroacetic acid] | < 3.98 µM
14 | CCCCC[C@@H](C(=O)NCNC(=O)c1ccc(-c2cc(CN(C)CC(=O)O)cc(OCC)c2)o1)[C@@H](CC)N(O)C=O [Example 130, 2-((3-ethoxy-5-(5-((((R)-2-((R)-1-(N-hydroxyformamido)propyl)heptanamido)methyl)carbamoyl)furan-2-yl)benzyl)(methyl)amino)acetic acid] | < 3.98 µM
15 | CCCCC[C@H](CN(O)C=O)C(=O)NCNC(=O)c1ccc(-c2cc(OCC)cc(C(=O)NCCN)c2)o1 [Example 34, (R)-5-(3-((2-aminoethyl)carbamoyl)-5-ethoxyphenyl)-N-((2-((N-hydroxyformamido)methyl)heptanamido)methyl) furan-2-carboxamide] | < 3.98 µM
16 | CCCCC[C@@H](C(=O)NCNC(=O)c1ccc(-c2ccc(C(C)(C)C(=O)O)cc2)o1)[C@@H](CC)N(O)C=O [Example 43, 2-(4-(5-((((R)-2-((R)-1-(N-hydroxyformamido)propyl)heptanamido)methyl)carbamoyl)furan-2-yl)phenyl)-2-methylpropanoic acid] | < 3.98 µM
17 | CCCCC[C@@H](C(=O)NCNC(=O)c1ccc(-c2cccc(C(C)(C)C(=O)O)c2)o1)[C@@H](CC)N(O)C=O [Example 67, 2-(3-(5-((((R)-2-((R)-1-(N-hydroxyformamido)propyl)heptanamido)methyl)carbamoyl)furan-2-yl)phenyl)-2-methylpropanoic acid] | < 3.98 µM
18 | CCCCC[C@H](CN(O)C=O)C(=O)NCNC(=O)c1ccc(-c2cccc(OCC(F)F)c2)o1 [Example 102, (R)-5-(3-(2,2-difluoroethoxy)phenyl)-N-((2-((N-hydroxyformamido)methyl)heptanamido)methyl)furan-2-carboxamide] | < 3.98 µM
19 | CCCCC[C@H](CN(O)C=O)C(=O)NCNC(=O)c1ccc(-c2cccc(N(C)C)c2)o1 [Example 27, (R)-5-(3-(dimethylamino)phenyl)-N-((2-((N-hydroxyformamido)methyl)heptanamido)methyl) furan-2-carboxamide] | < 3.98 µM
20 | CCCCC[C@H](CN(O)C=O)C(=O)NCNC(=O)c1ccc(-c2cccc(C(C)C(=O)O)c2)o1 (stereo partly drawn) [Example 76, 2-(3-(5-((((R)-2-((N-hydroxyformamido)methyl)heptanamido)methyl)carbamoyl)furan-2-yl)phenyl)propanoic acid] | < 3.98 µM
21 | CCCCC[C@H](CN(O)C=O)C(=O)NCNC(=O)c1ccc(-c2cccc(OCC(F)(F)F)c2)o1 [Example 23, (R)-N-((2-((N-hydroxyformamido)methyl)heptanamido)methyl)-5-(3-(2,2,2-trifluoroethoxy)phenyl) furan-2-carboxamide] | < 3.98 µM
22 | CCCCC[C@@H](C(=O)NCNC(=O)c1ccc(-c2ccc(C(=O)N[C@@H](CCC(=O)O)C(=O)O)cc2)o1)[C@@H](CC)N(O)C=O [Example 134, (S)-2-(4-(5-((((R)-2-((R)-1-(N-hydroxyformamido)propyl)heptanamido)methyl)carbamoyl)furan-2-yl)benzamido) pentanedioic acid] | < 3.98 µM
23 | CCCCC[C@@H](C(=O)NCNC(=O)c1ccc(-c2ccc(C(=O)N[C@@H](CC(=O)O)C(=O)O)c(C)c2)o1)[C@@H](CC)N(O)C=O [Example 120, (S)-2-(4-(5-((((R)-2-((R)-1-(N-hydroxyformamido)propyl)heptanamido)methyl)carbamoyl)furan-2-yl)-2-methylbenzamido) succinic acid] | < 3.98 µM
24 | CCCCC[C@@H](C(=O)NCNC(=O)c1ccc(-c2ccc(C(=O)O)c(OCC)c2)o1)[C@@H](CC)N(O)C=O [Example 1, 2-ethoxy-4-(5-((((R)-2-((R)-1-(N-hydroxyformamido)propyl)heptanamido)methyl)carbamoyl)furan-2-yl)benzoic acid] | < 3.98 µM
25 | CCCCC[C@@H](C(=O)NCNC(=O)c1ccc(-c2cccc(C(=O)N[C@@H](CC(=O)O)C(=O)O)c2)o1)[C@@H](CC)N(O)C=O [Example 83, (S)-2-(3-(5-((((R)-2-((R)-1-(N-hydroxy-formamido)propyl)heptamido)methyl)carbamoyl)furan-2-yl)benzamido) succinic acid] | < 3.98 µM

Same assay, conditions: Homo sapiens, Cardiac fibroblast, read-out: pIC50, PICP cellular inhibition assay (converted)

Row | Structure (SMILES) | IC50
26 | CCCCC[C@@H](C(=O)NCNC(=O)c1ccc(-c2ccc(C(=O)O)cc2)o1)[C@@H](CC)N(O)C=O [Example 71, 4-(5-((((R)-2-((R)-1-(N-hydroxyformamido)propyl)heptanamido)methyl)carbamoyl)furan-2-yl)benzoic acid] | < 3.98 µM
